# Laboratory results taken from a melting point compilation (Tetko et al.; mined from patent text by program, amines drawn as free bases though some values may be those of a salt).
row,SMILES,melting point
1,C=CCc1ccc(OCCC(C)C)c2c(=O)cc(-c3nnnn3Cc3ccccc3)oc12,92.5 to 94 °C
2,O=C(OCc1ccccc1)c1cc(OCc2ccccc2)c(OCc2ccccc2)cn1,117 °C
3,O=C1CCC(N2Cc3c(OCc4ccc(CN5CCSCC5)cc4)cccc3C2=O)C(=O)N1 (centres undefined),134 to 136 °C
4,CC1CC(=O)Nc2ccc(Br)cc21 (centres undefined),190 °C
5,Cc1cc(Oc2ccc(S(=O)(=O)c3ccc(Cl)cc3)cc2)ccc1N,200 °C
6,COc1ccc(S(=O)(=O)Nc2ccccc2-c2ccc(F)cc2C(C)O)cc1 (centres undefined),137 to 138 °C
7,CC1CCc2[nH]c3ccc(Br)cc3c2C1 (centres undefined),108 to 110 °C
8,CCOC(=O)c1c(Cl)nn(C)c1S(=O)(=O)NC(=O)Nc1nc(OC)cc(OC)n1,169 to 170 °C
9,N[C@@H](CCC(=O)N[C@@H](CS)C(=O)O)C(=O)O,187 °C
10,O=C1CCC(N2Cc3c(OCc4cccc(CN5CCC(c6ccc(F)cc6F)CC5)c4)cccc3C2=O)C(=O)N1 (centres undefined),211 to 213 °C
11,O=C1c2ccccc2C(=O)N1CC(Cl)(CCl)c1ccccc1 (centres undefined),114 to 115 °C
12,C=C1CC(Cn2cc(C)c(=O)[nH]c2=O)(c2ccc(-c3ccccc3)cc2)OC1=O (centres undefined),217 to 219 °C
13,Cc1nn(-c2c(Cl)cc(C(F)(F)F)cc2Cl)nc1CN(C)C,67 to 68 °C
14,COc1ccc(-c2csc(NC(=O)C(=O)OCCc3ccccc3)n2)cc1,165 to 167 °C
15,COC(=O)c1ccc(C(=O)CCC(=O)c2ccc3c(c2)C(C)(C)CCC3(C)C)cc1,126 to 129 °C
16,COc1cc(OC)c(-c2cc3ccccc3[nH]2)cc1C=CC(=O)c1ccc(S(=O)(=O)N(C)C)cc1,158 to 162 °C
17,O=c1c2c(n(-c3ccccc3)c3ncccc13)CCC(O)C2 (centres undefined),283 to 286 °C
18,O=C1CC[C@]2(C[C@H]3CC[C@@H]2C3)C(=O)N1 (racemic),154 to 156 °C
19,Cc1nc(NCc2ccccc2)[nH]c(=O)c1CCO,187 °C
20,N#Cc1cc(Cn2cncn2)cc(-c2ccc(O)cc2)c1,186 to 187 °C
21,CC(=O)OCCOCn1cnc2c(Cl)nc(Cl)nc21,96 to 99 °C
22,CC1CC(=O)NN=C1c1ccc(-n2cncn2)nc1 (centres undefined),256 to 257 °C
23,CNC(=O)c1c(NC(=O)CBr)c(OC)c(C(=O)NC)c(NC(=O)CBr)c1OC,308 to 310 °C

row,SMILES,melting point
1,Cc1nnc(-c2ccc(O)cc2)o1,239 °C
2,CC(=O)Oc1ccc2c(c1)Cc1cc(OC(C)=O)ccc1-2,168 °C
3,COC(=O)c1cc(Cl)ccc1NC(=O)c1cc(OC)c(OC)c(OC)c1,179 to 180 °C
4,CCCOc1ccc(-c2ccc3c(c2)C=C(C(=O)Nc2ccc(CN(C)C4CCOCC4)cc2)CCN3C=O)cc1,207 to 209 °C
5,COc1ccc(C(=O)c2cc(Cl)ccc2N)c(O)c1OC,112 to 115 °C
6,COCCc1sc2ncnc(N)c2c1-c1ccc(NS(=O)(=O)c2ccccc2)cc1,206 to 208 °C
7,CCCCCCN(CCCC(=O)Nc1c(SC)nc(C)nc1N(CC)CC)c1ccc(Br)cc1,89.8 to 93 °C
8,NC(=O)c1nccc(Oc2ccc(N)cc2F)c1Cl,217 to 218 °C
9,Cn1c(C(=O)C(C)(C)C)cc2cc(OCc3ccccc3)ccc21,101 to 103 °C
10,Nc1ccc(CCN2CCN(c3nsc4ccccc34)CC2)cc1,154 °C
11,N#Cc1ccc2cc(CCc3cc4ccc(C#N)cc4o3)oc2c1,266 to 267 °C
12,O=C(O)c1ccccc1C=Cc1cccc(Br)c1,145 to 150 °C
13,CON1CCn2c(OC(=O)C(C)(C)C)c(-c3c(C)cc(C)cc3C)c(=O)n2CC1,147 to 148 °C
14,COc1cccc2c1CC(C(=O)NCCOc1ccc(C(=O)OC(C)(C)C)cc1)N2S(=O)(=O)c1ccc(-c2ccc(F)cc2F)cc1 (centres undefined),135 °C
15,COc1ccc(-c2nc(CCCCCC(C)(C)c3nnn[nH]3)oc2-c2ccc(OC)cc2)cc1,82 °C
16,O=C1N(C/C=C/c2ccccc2[N+](=O)[O-])CCN1c1ccncc1,205 to 206 °C
17,Cc1cccc2c1S(=O)(=O)N=C2C1=C(O)C(C(C)(C)C)N(Cc2ccc(F)cc2)C1=O (centres undefined),> 250 °C
18,CN(Cc1cc2c(=O)c(C(=O)NCc3ccc(Cl)cc3)cn(C)c2s1)CC(O)c1ccc(O)cc1 (centres undefined),134 to 143 °C
19,CC#CN1CCN(C(=O)c2ccccc2)CC1,94 to 95 °C
20,CCOC(=O)c1nc2c(=O)[nH]c3cc(C(F)(F)F)ccc3n2c1CN1CCN(C)CC1,255 °C
21,O=C1c2ccccc2C(c2ccccc2)N1C1CCN(CCC(c2ccccc2)c2ccccc2)CC1 (centres undefined),65 to 69 °C
22,CCc1oc2ccccc2c1C(=O)c1cc(C(C)C)c(OS(=O)(=O)c2ccc(C(=O)O)c(O)c2)c(C(C)C)c1,200 to 201 °C
23,Cc1c(C)c2c(c(C)c1NC(=O)N1CCCC1)C(c1ccc(C(C)C)cc1)CO2 (centres undefined),186 to 188 °C

row,SMILES,melting point
1,CCC(CC)c1nc(CN(C)C(=O)N[C@H](C(=O)N[C@@H](Cc2ccccc2)C[C@H](O)[C@H](Cc2ccccc2)NC(=O)OCc2cncs2)C(C)C)cs1,64 to 66 °C
2,C#C[C@]1(C)CCc2c(C)c(O)c(C)c(C)c2O1,81 to 83 °C
3,Cc1ccccc1NC(=O)Nc1ccc(CC(=O)NC(CC(C)C)C2=NOC(CCC(=O)O)(CCC(=O)O)C2)cc1 (centres undefined),173 to 175 °C
4,C=Cc1ccc([Si](C)(C)C)c(C(=O)NCC)c1Cl,127 to 128 °C
5,CNCc1cn(S(=O)(=O)c2cccnc2)c(-c2ccccc2)c1F,98 to 99 °C
6,COC(=O)c1ccc(-c2nc(-c3ccc(Cl)cc3)co2)cc1,183 to 184 °C
7,Cc1cc(NC(=O)Nc2ccc(N(CCCl)CCCl)cc2)c2ccccc2n1,128 to 129 °C
8,CN(C)Nc1cc(Oc2nn(C)c(C(F)(F)F)c2Cl)ccc1[N+](=O)[O-],72 to 76 °C
9,CC(C)c1[nH]nc2c1C(=O)c1c(NC(=O)CN3CCC(CN)CC3)cccc1-2,218 to 220 °C
10,O=C(Nc1ccc(CP(=O)(O)O)cc1)c1cc(=O)c2ccccc2o1,265 to 266 °C
11,CC(N)=Nc1ccc(Cl)cc1Cc1ccccc1F,115 to 119 °C
12,COC(=O)c1cnc(CNC(=O)c2ccccc2)c2ccccc12,140 to 142 °C
13,Cc1cccc(C2(O)CCN(C)CC2)c1,86 to 90 °C
14,COC(=O)c1nc(-c2ccc(Cl)cc2)c(F)c(N)c1OC,93 to 94 °C
15,CN(N)c1ccc(-c2ccccc2)nn1,145 to 147 °C
16,CC(=O)Oc1cc(Oc2ccccc2)c(OC(C)=O)c2ccccc12,137 to 138 °C
17,CCCCn1c(C)c(C)cc(NC(=O)c2ccc(F)cc2)c1=O,129 to 130 °C
18,CC1(C)c2ccccc2C(C#N)c2ccccc21,91 to 92 °C
19,COc1ccc2ccccc2c1C1OC(=O)NC1=O (centres undefined),199 to 201 °C
20,COC(=O)c1sccc1NC(=O)OC(C)(C)C,88 to 89 °C
21,CN(C)C1CCN(c2nc(NCc3ccccc3)c3ncnc(NCc4ccccc4)c3n2)CC1,143 to 145 °C
22,N#Cc1ccc2c(c1)Sc1ccc(N)cc1C=C2,181 to 183 °C
23,NC(=O)c1cc(-c2cccc3cc(Cc4cccc(C(F)(F)F)c4)sc23)ccc1F,169 to 170 °C
